Several values for one entry are separate records, joined by “and”; a condition that tells them apart may be missing. Equal entries are not always repeated.
Assays:
[1] = tested on: GFP-TEAD4 condensates in HEK293FT cells; experiment: GFP-TEAD4 condensate imaging, condensed fraction in cells; format: cell-based; settings: Figure 2D source data, GFP-TEAD4 condensates with co-expressed cofactor, with or without 1,6-Hex, single measurement
GFP-TEAD4 condensates = experiment: siRNA screening based on TEAD4 condensate; format: cell-based; settings: Figure 2B source data; siRNA against the named gene; Z score based analysis
Protocol: siRNA reagents were obtained from the Dharmacon Human ON-TARGETplus siRNA Smartpool Library (Thermo) as described previously (Tang et al, [2020]). […] Lipofectamine RNAiMAX reagent (Thermo) at a volume of 0.05 μl per well was then added to the siRNA-loaded plates. Subsequently, cells expressing GFP-TEAD4 were seeded into the plate at 2000 cells per well. After subsequent transfection for 48 h, the cells were fixed with 4% PFA at room temperature for 30 min. DAPI was used to identify individual nuclei. The plates were kept at 4 °C in the dark before being analyzed using the Opera system. Twenty focus fields per well were scanned and analyzed. Scrambled siRNA was used as an internal reference on each plate.

HGC-27 cells = experiment: siRNA screening based on cell growth; parameters: species or system human; settings: Figure 2B source data; siRNA against the named gene; Z score based analysis
Protocol: For screening based on cell growth, HGC-27 cells (2000 per well) were seeded into a 96-well plate overnight. The individual siRNAs targeting 192 BioID-identified genes were then added into each well to a final concentration of 25 nM. After subsequent incubation for 48 h, the cells were analyzed using an ATP-based CellCounting-Lite^TM 2.0 reagent (Vazyme, Nanjing, China) according to the manufacturer’s instructions. The intracellular ATP contents were measured using an EnSight™ Multimode Microplate Reader (Perkin Elmer).

[2] = tested on: MYC / CYR61 promoter-enhancer interactions in HEK293FT cells; experiment: Chromatin conformation capture (3C) assay; format: cell-based; settings: VGLL4-overexpressing HEK293FT cells + 1,6-Hex; three biological replicates
Protocol: The 3C assay was performed following a protocol described previously ([…] et al, [2007]). Briefly, cells were incubated with 0.05% trypsin for 10 min before detaching. Collected cells were cross-linked with 2% formaldehyde for 10 min, followed by treatment with 0.125 M glycine for 5 min to quench the cross-linking reaction. Cells were then pelleted and incubated with a lysis buffer (10 mM Tris-HCl pH 7.5, 10 mM NaCl, 5 mM MgCl2 and 0.1 mM EGTA) at 4 °C for 15 min. Resulting pelleted nuclei were digested with Hind-III restriction enzyme (NEB) at 37 °C overnight and subsequently ligated with T4 DNA ligase (NEB) at 16 °C for 4 h. Thereafter, the samples were incubated at 65 °C overnight to de-crosslink the protein-DNA complexes and were subjected to phenol-chloroform extraction and ethanol precipitation to obtain the 3C templates. Primers flanking the Hind-III restriction sites located close to TEAD4-targeted gene CYR61 (Xie et al, [2019]) or MYC (Zanconato et al, [2015]) promoter (anchor primers) and enhancers were used to quantitively measure the promoter-enhancer interactions. The primers used are listed in Appendix Table S1.

[3] = tested on: CTGF promoter occupancy in HEK293FT cells; experiment: ChIP-qPCR; format: cell-based; settings: VGLL4-overexpressing HEK293FT cells + 1,6-Hex; three biological replicates
Protocol: ChIP was carried out following a procedure previously described (An et al, [2018]). Briefly, cells were first cross-linked with freshly prepared formaldehyde (final concentration 1.42%) for 15 min, followed by addition of glycine (125 mM) for 5 min at room temperature. After a two-round wash with cold PBS, cells were scraped and collected by centrifuge. Resulting pelleted cells were resuspended in 400 μl of ChIP lysis buffer (50 mM HEPES/KOH, pH 7.5; 140 mM NaCl; 1 mM EDTA; 1% Triton X-100; 0.1% Na-deoxycholate and protease inhibitors) and subjected to sonication with Bioruptor at high power for 15 cycles (30 s on and 30 s off for each cycle) to shear the chromatin. Samples were then further diluted twice with lysis buffer and the diluted samples were centrifuged to clear the supernatants. Meanwhile, eighty microliters of each of the supernatants were directly processed to extract total DNA as whole-cell input. […] Prewashed protein A/G beads (L2118; Santa Cuz) were added into these samples, which were then incubated for another 3 h. These incubated samples were washed five times with ChIP lysis buffer and then mixed with 100 μl of 10% chelex (1421253; Bio-Rad), followed by being boiled for 10 min and centrifuged at 4 °C for 1 min. Resulting supernatants were transferred to new tubes. Subsequently, another 120 μl of MilliQ water were added to each fraction of beads pellet, and the resulting mixtures were vortexed for 10 s, and then centrifuged again to spin down the beads. The supernatants were combined as templates for follow-up qPCR analysis.

CTGF mRNA = experiment: RT-PCR of TEAD4 target genes; format: cell-based
Protocol: For RT-PCR, total RNA was isolated from cells using RNA Isolator Total RNA Extraction Reagent (Vazyme) according to the manufacturer’s instructions. The isolated RNA was reverse transcribed into cDNA using HiScpt II (Vazyme). Quantitative RT-PCR was performed using a CFX96^TM Real-Time system (Bio-Rad) and SYBR Green PCR master mix (Yeasen). The fold change in the gene expression was calculated using the comparative Ct method, and three replicates were tested for each cDNA sample. ACTB was used as an internal reference. Transcript copies of TEAD4 were determined by generating standard curves using plasmid DNA (TEAD4). Each experiment was repeated at least three times. The sequences of the primers are listed in Appendix Table S1.

Row | Compound | Condensed fraction ([1]; replicate 1 of 9) | Condensed fraction ([1]; replicate 2 of 9) | Condensed fraction ([1]; replicate 3 of 9) | Condensed fraction ([1]; replicate 4 of 9) | Condensed fraction ([1]; replicate 5 of 9) | Condensed fraction ([1]; replicate 6 of 9) | Condensed fraction ([1]; replicate 7 of 9) | Condensed fraction ([1]; replicate 8 of 9) | Condensed fraction ([1]; replicate 9 of 9) | Z score of condensed fraction (GFP-TEAD4 condensates) | Z score of cell growth (HGC-27 cells) | 3C interaction promoter-enhance1 (MYC locus) [2] | 3C interaction promoter-enhance 4 (MYC locus) [2] | ChIP-qPCR enrichment of CTCF on CTGF promoter [3] | ChIP-qPCR enrichment of H3K27ac on CTGF promoter [3] | ChIP-qPCR enrichment of RNA Pol II on CTGF promoter [3] | Effect on GLUP-induced CTGF downregulation (CTGF mRNA; GLUP-treated cells with or without 1,6-Hex, mRNA) | CTGF mRNA level (CTGF mRNA; VGLL4-overexpressing HEK293FT cells + 1,6-Hex 0.25% v/v, three biological replicates)
1 | VGLL4: transcriptional cofactor protein with two TDU domains binding TEAD4 | 31.2622% | 58.3357% | 38.0997% | 50.0073% | 50.0033% | 46.4819% | 42.8861% | 42.8738% | 35.7201% | -4.055 | 3.062 |  |  |  |  |  |  | 
2 | RCOR3 |  |  |  |  |  |  |  |  |  | 1.432 | 0.05778 |  |  |  |  |  |  | 
3 | OCCCCCCO [1,6-Hex, 1,6-hexanediol] |  |  |  |  |  |  |  |  |  |  |  | 0.8 and 0.75 and 0.85 | 0.8 and 0.65 and 0.74 | 0.0726 and 0.0717 and 0.0639 | 0.0982 and 0.0959 and 0.0952 | 0.1941 and 0.1778 and 0.182 | obviously abrogated GLUP-induced downregulation of CTGF | 1.31 and 0.86 and 1.18

— PMC11574045, “A cofactor-induced repressive type of transcription factor condensation can be induced by synthetic peptides to suppress tumorigenesis” (The EMBO Journal, 2024)
